The results in this text go back to patent US20240148821A1, “PHARMACEUTICAL USE OF CYCLIC PEPTIDE COMPOUND” (CHUGAI SEIYAKU KABUSHIKI KAISHA, priority 2021, published 2024).

Test [1] relates to Human pancreatic cancer cell line AsPC-1 (G12D mutation Kras). Kind of test: AsPC-1 cell growth inhibition (AsPC-1 CGI). It is filed as cell-based. The following applies: read-out: AsPC-1 cell growth inhibition, 50% growth inhibitory concentration (IC50 value); 96 hours, CellTiter-Glo, values classified in ranges.
Test [2] has as its target protein-protein interaction between Kras and SOS1 (biotin-tagged human Kras loaded with GDP, His-tagged human SOS1) (Homo sapiens (Human), UniProt P01116, G12D). Kind of test: Protein-protein interaction inhibition between Kras and SOS1 (KrasG12D-SOS PPI) using AlphaScreen.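 Also: kras produced in E. coli, Ni-coupled donor beads and streptavidin acceptor beads, excitation 680 nm with emission detected at 520–620 nm via singlet oxygen transfer.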 It is filed as biochemical. The following applies: AlphaScreen; biotin-tagged human Kras loaded with GDP, His-tagged human SOS1; read-out: KRAS G12D-SOS PPI IC50.

pIC50: −log10 of the molar value. Bridge positions count the residues as written; N and C are the ends. Square brackets hold non-standard residues; d marks the D form. Peptide text beside a SMILES is read from it. * marks the point of attachment. hPhe(3,5-F2-4-CF3) = N[C@@H](CCc1cc(F)c(C(F)(F)F)c(F)c1)C(=O)O; hPhe(3-Cl-4-CF3) = N[C@@H](CCc1ccc(C(F)(F)F)c(Cl)c1)C(=O)O; hPhe(3-F,4-CF3) = N[C@@H](CCc1ccc(C(F)(F)F)c(F)c1)C(=O)O; NEtPhe(4-CF3) = CCN[C@@H](Cc1ccc(C(F)(F)F)cc1)C(=O)O; NMePhe(4-CF3) = CN[C@@H](Cc1ccc(C(F)(F)F)cc1)C(=O)O; NEtPhe(4-Me) = CCN[C@@H](Cc1ccc(C)cc1)C(=O)O; NMeAla(cPent) = CN[C@@H](CC1CCCC1)C(=O)O; NMeGly(cPent) = CN[C@H](C(=O)O)C1CCCC1; NMeGly(cBu) = CN[C@H](C(=O)O)C1CCC1; NMeCha = CN[C@@H](CC1CCCCC1)C(=O)O; Hyp = O=C(O)[C@@H]1C[C@@H](O)CN1; NEtLeu = CCN[C@@H](CC(C)C)C(=O)O; NMeChg = CN[C@H](C(=O)O)C1CCCCC1; NMeI = CC[C@H](C)[C@H](NC)C(=O)O; NMeD = CN[C@@H](CC(=O)O)C(=O)O; NMeL = CN[C@@H](CC(C)C)C(=O)O; Oxazolidin(3-yl) = C1CN(*)CO1; NMeV = CN[C@H](C(=O)O)C(C)C; Azetidin(1-yl) = C1CN(*)C1; Morpholide = C1CN(*)CCO1; NMeA = CN[C@@H](C)C(=O)O; Piperidide = C1CCN(*)CC1; Pyrrolidide = C1CCN(*)C1; Ac5c = NC1(C(=O)O)CCCC1; Aze = O=C(O)[C@@H]1CCN1; Sar = CNCC(=O)O

As for `CC[C@H](C)[C@@H]1NC(=O)[C@H](CC(C)C)N(C)C(=O)C[C@@H](C(=O)N(C)C)N(C)C(=O)[C@H](C2CCCC2)N(C)C(=O)C2(CCCC2)NC(=O)[C@@H]2CCCN2C(=O)[C@H](CCc2ccc(C(F)(F)F)c(F)c2)NC(=O)CN(C)C(=O)[C@H](Cc2ccc(C)cc2)N(CC)C(=O)[C@@H]2CCN2C(=O)[C@H](C)N(C)C1=O` [Compound 1152] ([NMeL]I[NMeA][Aze][NEtPhe(4-Me)][Sar][hPhe(3-F,4-CF3)]P[Ac5c][NMeGly(cPent)][NMeD]-NMe2; lactam N-11), the pIC50 in test [1] was no less than 7.70; in test [2] it was 8.92.

Regarding `CCO[C@@H]1C[C@H]2C(=O)NC3(CCCC3)C(=O)N(C)[C@@H](C3CCCC3)C(=O)N(C)[C@H](C(=O)N3CCC3)CC(=O)N(C)[C@@H](CC(C)C)C(=O)N[C@@H]([C@@H](C)CC)C(=O)N(C)[C@@H](C)C(=O)N3CC[C@H]3C(=O)N(C)[C@@H](CC3CCCCC3)C(=O)N(C)CC(=O)N[C@@H](CCc3ccc(C(F)(F)F)c(Cl)c3)C(=O)N2C1` [Compound 1158] ([NMeL]I[NMeA][Aze][NMeCha][Sar][hPhe(3-Cl-4-CF3)][Hyp](Et)[Ac5c][NMeGly(cPent)][NMeD]-{Azetidin(1-yl)}; lactam N-11), the pIC50 was no less than 7.70 in test [1] and 9.28 in test [2].

As to `CCO[C@@H]1C[C@H]2C(=O)NC3(CCCC3)C(=O)N(C)[C@@H](C3CCCC3)C(=O)N(C)[C@H](C(=O)N3CCCC3)CC(=O)N(C)[C@@H](CC(C)C)C(=O)N[C@@H]([C@@H](C)CC)C(=O)N(C)CC(=O)N(C)CC(=O)N(C)[C@@H](CC3CCCCC3)C(=O)N(C)CC(=O)N[C@@H](CCc3cc(F)c(C(F)(F)F)c(F)c3)C(=O)N2C1` [Compound 1162] ([NMeL]I[Sar][Sar][NMeCha][Sar][hPhe(3,5-F2-4-CF3)][Hyp](Et)[Ac5c][NMeGly(cPent)][NMeD]-Pyrrolidide; lactam N-11), the pIC50 was no less than 7.70 in test [1] and 9.24 in test [2].

For `CC[C@H](C)[C@@H]1NC(=O)[C@H](CC(C)C)N(C)C(=O)C[C@@H](C(=O)N(C)C)N(C)C(=O)[C@H](C2CCCC2)N(C)C(=O)C2(CCCC2)NC(=O)[C@@H]2CCCN2C(=O)[C@H](CCc2cc(F)c(C(F)(F)F)c(F)c2)NC(=O)CN(C)C(=O)[C@H](CC2CCCCC2)N(C)C(=O)[C@@H]2CCN2C(=O)[C@H](C)N(C)C1=O` [Compound 1170] ([NMeL]I[NMeA][Aze][NMeCha][Sar][hPhe(3,5-F2-4-CF3)]P[Ac5c][NMeGly(cPent)][NMeD]-NMe2; lactam N-11), the pIC50 in test [1] was no less than 7.70; in test [2], 9.27.

In the case of `CC[C@H](C)[C@@H]1NC(=O)[C@H](CC2CCCC2)N(C)C(=O)C[C@@H](C(=O)N2CCOCC2)N(C)C(=O)[C@H](C2CCCC2)N(C)C(=O)C2(CCCC2)NC(=O)[C@@H]2CCCN2C(=O)[C@H](CCc2ccc(C(F)(F)F)c(Cl)c2)NC(=O)CN(C)C(=O)[C@H](C2CCCC2)N(C)C(=O)[C@@H]2CCN2C(=O)[C@H](C)N(C)C1=O` [Compound 1173] ([NMeAla(cPent)]I[NMeA][Aze][NMeGly(cPent)][Sar][hPhe(3-Cl-4-CF3)]P[Ac5c][NMeGly(cPent)][NMeD]-Morpholide; lactam N-11), the pIC50 in test [1] was no less than 7.70; in test [2], 9.13.

As to `CC[C@H](C)[C@@H]1NC(=O)[C@H](CC(C)C)N(C)C(=O)C[C@@H](C(=O)N2CCCCC2)N(C)C(=O)[C@H](C(C)C)N(C)C(=O)[C@@H](C)NC(=O)[C@@H]2CCCN2C(=O)[C@H](CCc2ccc(C(F)(F)F)c(Cl)c2)NC(=O)CN(C)C(=O)[C@H](CC2CCCCC2)N(C)C(=O)[C@@H]2CCN2C(=O)[C@H](C)N(C)C1=O` [Compound 1174] ([NMeL]I[NMeA][Aze][NMeCha][Sar][hPhe(3-Cl-4-CF3)]P[dA][NMeV][NMeD]-Piperidide; lactam N-11), the pIC50 in test [1] is less than 6.30; in test [2], 7.21.

Take `CC[C@H](C)[C@@H]1NC(=O)[C@H](CC(C)C)N(C)C(=O)C[C@@H](C(=O)N2CCCC2)N(C)C(=O)[C@H]([C@@H](C)CC)N(C)C(=O)C2(CCCC2)NC(=O)[C@@H]2CCCN2C(=O)[C@H](CCc2cc(F)c(C(F)(F)F)c(F)c2)NC(=O)CN(C)C(=O)[C@H](Cc2ccc(C(F)(F)F)cc2)N(CC)C(=O)[C@@H]2CCN2C(=O)[C@H](C)N(C)C1=O` [Compound 1175] ([NMeL]I[NMeA][Aze][NEtPhe(4-CF3)][Sar][hPhe(3,5-F2-4-CF3)]P[Ac5c][NMeI][NMeD]-Pyrrolidide; lactam N-11): the pIC50 is no less than 7.70 in test [1] and 9.10 in test [2].

On to `CC[C@H](C)[C@@H]1NC(=O)[C@H](CC(C)C)N(C)C(=O)C[C@@H](C(=O)N2CCOC2)NC(=O)[C@H](C(C)C)N(C)C(=O)C2(CCCC2)NC(=O)[C@@H]2CCCN2C(=O)[C@H](CCc2ccc(C(F)(F)F)c(Cl)c2)NC(=O)CN(C)C(=O)[C@H](CC2CCCCC2)N(C)C(=O)[C@@H]2CCN2C(=O)[C@H](C)N(C)C1=O` [Compound 1188] ([NMeL]I[NMeA][Aze][NMeCha][Sar][hPhe(3-Cl-4-CF3)]P[Ac5c][NMeV]D-{Oxazolidin(3-yl)}; lactam N-11), for which the pIC50 in test [1] is less than 6.30; in test [2] it was 7.48.

For `CC[C@H](C)[C@@H]1NC(=O)[C@H](CC(C)C)N(CC)C(=O)C[C@@H](C(=O)N2CCCC2)N(C)C(=O)[C@H]([C@@H](C)CC)N(C)C(=O)C2(CCCC2)NC(=O)[C@@H]2CCCN2C(=O)[C@H](CCc2ccc(C(F)(F)F)c(Cl)c2)NC(=O)CN(C)C(=O)[C@H](Cc2ccc(C(F)(F)F)cc2)N(C)C(=O)[C@@H]2CCN2C(=O)[C@H](C)N(C)C1=O` [Compound 1190] ([NEtLeu]I[NMeA][Aze][NMePhe(4-CF3)][Sar][hPhe(3-Cl-4-CF3)]P[Ac5c][NMeI][NMeD]-Pyrrolidide; lactam N-11), the pIC50 is no less than 7.70 in test [1] and 9.08 in test [2].

As for `CC[C@H](C)[C@@H]1NC(=O)[C@H](CC2CCCC2)N(C)C(=O)C[C@@H](C(=O)N2CCC2)N(C)C(=O)[C@H](C2CCCC2)N(C)C(=O)C2(CCCC2)NC(=O)[C@@H]2CCCN2C(=O)[C@H](CCc2ccc(C(F)(F)F)c(Cl)c2)NC(=O)CN(C)C(=O)[C@H](CC2CCCCC2)N(C)C(=O)[C@@H]2CCN2C(=O)[C@H](C)N(C)C1=O` [Compound 1199] ([NMeAla(cPent)]I[NMeA][Aze][NMeCha][Sar][hPhe(3-Cl-4-CF3)]P[Ac5c][NMeGly(cPent)][NMeD]-{Azetidin(1-yl)}; lactam N-11), the pIC50 in test [1] is no less than 7.70; in test [2], 9.15.

`CC[C@H](C)[C@@H]1NC(=O)[C@H](CC(C)C)N(C)C(=O)C[C@@H](C(=O)N2CCOCC2)NC(=O)[C@H](C(C)C)N(C)C(=O)C2(CCCC2)NC(=O)[C@@H]2CCCN2C(=O)[C@H](CCc2ccc(C(F)(F)F)c(Cl)c2)NC(=O)CN(C)C(=O)[C@H](CC2CCCCC2)N(C)C(=O)[C@@H]2CCN2C(=O)[C@H](C)N(C)C1=O` [Compound 1200] ([NMeL]I[NMeA][Aze][NMeCha][Sar][hPhe(3-Cl-4-CF3)]P[Ac5c][NMeV]D-Morpholide; lactam N-11): the pIC50 is less than 6.30 in test [1] and 7.35 in test [2].

In the case of `CCO[C@@H]1C[C@H]2C(=O)NC3(CCCC3)C(=O)N(C)[C@@H](C3CCCCC3)C(=O)N(C)[C@H](C(=O)N3CCCC3)CC(=O)N(C)[C@@H](C3CCC3)C(=O)N[C@@H]([C@@H](C)CC)C(=O)N(C)CC(=O)N(C)CC(=O)N(C)[C@@H](CC3CCCCC3)C(=O)N(C)CC(=O)N[C@@H](CCc3ccc(C(F)(F)F)c(Cl)c3)C(=O)N2C1` [Compound 1204] ([NMeGly(cBu)]I[Sar][Sar][NMeCha][Sar][hPhe(3-Cl-4-CF3)][Hyp](Et)[Ac5c][NMeChg][NMeD]-Pyrrolidide; lactam N-11), the pIC50 in test [1] was no less than 7.70; in test [2] it was 9.36.
